“Also recorded” adds a separate entry of the source.
Assays:
OIR mice = assay: Oxygen‐induced retinopathy (OIR) mouse model, retinal vasculature (CD31 whole‐mount); type: in vivo
Procedure: Figure 7 Normalized retinal vascularization upon topical application of TRAP1 inhibitors. A) HIF1α degradation induced by TRAP1 inhibitors. MIO‐M1 cells were incubated with various concentrations of TRAP1 inhibitors as indicated for 6 h under hypoxia and analyzed by western blotting. B) Quantification of HIF1α protein degradation. The HIF1α band intensities in western blot data obtained as in (A) were analyzed and compared. The data are mean ± SEM from four independent experiments. C) Vascular structure of P17 OIR mouse retinas after topical drug application. Vehicle and 2 mM TRAP1 inhibitors were topically administered to the left and right eyes, respectively, of OIR mice at P12 once per day for 5 days. At P17, mice were sacrificed and analyzed by whole‐mount staining with an anti‐CD31 antibody and confocal microscopy. Scale bar, 500 µm. D) Quantification of avascular areas and neovascular tuft. Retinal images collected as in (C) were quantitatively analyzed (n = 5 mice/group). Data information: Data are expressed as mean ± SEM. Student t‐test, ^*** P < 0.001; ^* […].
To induce OIR (Figure 1A), mouse pups were exposed to 75% oxygen at postnatal day 7 (P7) until P12 together with their mothers in a hyperoxic chamber (InVivo Cabinet Model 15; Coy Laboratory; Grass Lake, MI, USA). Hyperoxia‐exposed pups were returned to room air at P12 with nursing mothers until P17. At P17, mice were sacrificed, and eyes were enucleated.
For intravitreal injection, MitoQ was injected into the vitreous cavity using a Nanoliter 2000 microinjector (World Precision Instruments; Sarasota, FL, USA) fitted with glass capillary pipettes under anesthesia. In total, 1 µl MitoQ (0.1 mg/ml) was delivered into the right eye of an OIR mouse once at P12. The contralateral eye was injected with vehicle (0.1% DMSO prepared in distilled water) as a control. […]
Fixed eyes were dissected to isolate retinas under a microscope. […] Fluorescence images were acquired using an Axio Zoom fluorescence microscope (Zeiss; Oberkochen, Germany) or a LSM780 or LSM980 confocal microscope (Zeiss). […]

MIO‐M1 cells = assay: Cytoplasmic calcium (Fluo‐4 AM) in MIO‐M1 cells; type: cell-based, human; conditions: Fluo‐4 AM‐labeled MIO‐M1 cells under hypoxia; MitoQ 6 h, thapsigargin 30 min
Procedure: Figure 5 TRAP1 inhibition induces mPTP opening, mitochondrial calcium discharge, and calpain‐1 activation. A) Visualization of cytoplasmic calcium. Fluo‐4 AM‐labeled MIO‐M1 cells were incubated with the TRAP1 inhibitors gamitrinib and MitoQ^[ [32], [41] ^] for 6 h or thapsigargin for 30 min under hypoxia, and analyzed by confocal microscopy. Scale bars, 10 µm and 2 µm (inset). […] MIO‐M1 cells were treated with a TRAP1 inhibitor, 3 µM gamitrinib or 0.5 µM MitoQ, for 6 h under hypoxia (n = 4). Enzyme activity was measured using a fluorogenic calpain substrate as described in the Experimental Section. C) Restored HIF1α expression upon CypD inhibition. MIO‐M1 cells were incubated with control or CypD‐targeting siRNAs, treated with the TRAP1 inhibitor MitoQ for 6 h under hypoxia, harvested, and analyzed by western blotting. Black and red arrows indicate pro and autolyzed forms of calpain‐1, respectively. […] MIO‐M1 cells were incubated with TRAP1‐targeting siRNAs for 48 h, exposed to hypoxia for 6 h, harvested, and analyzed by qPCR (n = 4). […] Cells were then analyzed by flow cytometry to detect cytoplasmic calcium. […] MIO‐M1 cells were incubated with TRAP1 inhibitors, 3 µM gamitrinib, and 0.5 µM MitoQ, and a cell‐permeable calcium chelator, BAPTA (10 µM), for 6 h as indicated under hypoxia and analyzed by western blotting. […] Data information: Data are expressed as mean ± SEM. […]

Trap1 KO MIO-M1 cells = assay: TRAP1 inhibitor effects in Trap1 KO MIO‐M1 cells; type: cell-based, human
Procedure: MIO‐M1 Trap1 KO cell lines were generated using CRISPR/Cas9‐derived RNA‐guided endonucleases (Toolgen; Seoul, Republic of Korea). MIO‐M1 cells were co‐transfected with the Cas9 vector and TRAP1‐sgRNA expression vector (sgRNA sequence 1; 5′‐[…]‐3′ and sequence 2; 5′‐[…]‐3′) using jetPRIME transfection reagent (Polyplus; Illkirch‐Graffenstaden, France). Transfected cells were selected in culture medium containing […] puromycin (Sigma). Single‐cell colonies were collected using a cloning cylinder (I.D. × H 6.4 mm × 8 mm; Sigma) and analyzed using T7 endonuclease I to confirm Trap1 KO.
Supplementary Figure 16. Calpain-1 autolysis and HIF1α degradation in Trap1 […]
A) HIF1α degradation and calpain-1 autolysis in Trap1 knockout (KO) MIO-M1 cells. Trap1 KO MIO-M1 cells were generated as described in the Experimental Section and incubated in hypoxia for 6 hr, followed by analysis using western blotting. Under hypoxia, HIF1α degradation and autoproteolysis of calpain-1 were found in Trap1 KO MIO-M1 cells, when compared with wild type (WT) cells. […]
cell lines were established using MIO-M1 cells. WT and KO cells were incubated with MitoQ for 6 hr under hypoxia and analyzed by western blotting. Trap1 KO reduced the expression of […]
Quantification of the HIF1α protein level. HIF1α western blot density was analyzed and compared. Data are expressed as mean ± SEM from four independent experiments.
C) Cytoplasmic calcium concentration. WT and Trap1-KO MIO-M1 cells were labeled with […]
Fluo-4 AM, incubated with 3 μM gamitrinib or 1 μM MitoQ for 6 hr under hypoxia, collected, and analyzed by flow cytometry. Data information: Data are expressed as mean ± SEM.
Student t-test, ***P < 0.001; ns, not significant. […]

Question: `COC1=C(OC)C(=O)C(CCCCCCCCCC[P+](c2ccccc2)(c2ccccc2)c2ccccc2)=C(C)C1=O` [MitoQ, mitoquinone] was tested. Which “avascular and neovascular tuft areas in OIR mice” value (OIR mice; intravitreal injection, 1 µl of 0.1 mg/ml once at P12, analysed at P17, n = 5 mice/group) did it give?
Answer: The value was “significantly reduced; also recorded: dramatically reduced”.

Question: What about the “avascular and neovascular tuft areas in OIR mice” value (OIR mice; topical, 2 mM once per day for 5 days from P12, analysed at P17, n = 5 mice/group) of the same compound?
Answer: Its value is “reduced”.

Question: And the “avascular and neovascular tuft areas in OIR mice” value (OIR mice; topical, 10 μl of 1 mM three times daily from P12 to P17, n = 6 mice/group)?
Answer: Its value is “reduced; also recorded: potent activity”.

Question: What about the cytoplasmic calcium (MIO‐M1 cells) of the same compound?
Answer: Its cytoplasmic calcium is “Modestly elevated”.

Question: What about the “cytosolic calcium concentration in Trap1−/− cells” value (Trap1 KO MIO-M1 cells; 3 μM gamitrinib or 1 μM MitoQ, 6 hr under hypoxia, Fluo-4 AM flow cytometry) of the same compound?
Answer: Its value is “did not affect”.

Question: What about the “HIF1α expression in Trap1−/− cells” value (Trap1 KO MIO-M1 cells; 6 hr under hypoxia, western blotting) of the same compound?
Answer: Its value is “not further affected; also recorded: did not affect”.

Question: And the “calpain‐1 activation in Trap1−/− cells” value (Trap1 KO MIO-M1 cells; hypoxia)?
Answer: The value was “did not affect”.
